The source of these data is ChEMBL document CHEMBL4680267, “Design, synthesis and biological evaluation of 7-substituted 4-phenyl-6H-imidazo[1,5-a]thieno[3,2-f] [1,4]diazepines as safe anxiolytic agents” (Eur J Med Chem, 2020).

Data set [1] concerns Mus musculus. Put plainly: Anxiolytic activity in mouse assessed as increase in time spent in lighted compartment at 30 mg/kg, po measured after 30 mins by light-dark box test (reference value: 122.3 +/- 8.5 secs). The note with it: 0.5 h. The class given is functional.
For data set [2], the system named is Mus musculus. Put plainly: Anxiolytic activity in mouse assessed as increase in time spent in lighted compartment at 10 mg/kg, po measured after 30 mins by light-dark box test (reference value: 122.3 +/- 8.5 secs). The note with it: 0.5 h. The class given is functional.
A further data set is filed under the species Rattus norvegicus. Put plainly: Displacement of [3H]-Flumazenil from Central type benzodiazepine receptor in rat cerebral cortex membrane at 10 uM incubated for 90 mins by liquid scintillation counting method relative to control. The class given is cell membranes.
Data set [3] in a line: Displacement of [3H]-Flumazenil from Central type benzodiazepine receptor in rat cerebral cortex membrane incubated for 90 mins by liquid scintillation counting method. The class given is cell membranes.
Data set [4] deals with Mus musculus. Put plainly: Anticonvulsive activity in mouse assessed as protection against pentylenetetrazole-induced seizure at 30 mg/kg, po administered 30 mins prior to pentylenetetrazole challenge and measured for 30 mins. The class given is functional. The note with it: time 60 min, 1 h.
Data set [5] concerns Mus musculus. Put plainly: Anti-amnesic activity in mouse model of scopolamine-induced cognitive deficit assessed as latency time to enter dark compartment in training session at 10 mg/kg, po and mesured for 30 mins by passive avoidance test (reference value: 14.2 +/- 2.2 secs). The note with it: 0.5 h. The class given is functional.
The subject of data set [6] is Mus musculus. Put plainly: Anti-amnesic activity in mouse model of scopolamine-induced cognitive deficit assessed as latency time to enter dark compartment in training session at 30 mg/kg, po and measured for 30 mins by passive avoidance test (reference value: 14.2 +/- 2.2 secs). The class given is functional. The note with it: 0.5 h.
Data set [7] deals with Mus musculus. Put plainly: Anti-amnesic activity in mouse model of scopolamine-induced cognitive deficit assessed as latency time to enter dark compartment in retension session at 10 mg/kg, po and measured after 24 hrs by passive avoidance test (reference value: 46.2 +/- 8.9 secs). The class given is functional.
The test system of data set [8] is Mus musculus. Put plainly: Anti-amnesic activity in mouse model of scopolamine-induced cognitive deficit assessed as latency time to enter dark compartment in retension session at 30 mg/kg, po and measured after 24 hrs by passive avoidance test (reference value: 46.2 +/- 8.9 secs). The class given is functional.
Data set [9] can be described thus: Hypnotic activity in mouse assessed as phenobarbital induced sleep induction time at 30 mg/kg, po administered 30 mins prior to phenobarbital challenge and measured for 30 mins (reference value: 4.4 +/- 1.1 min). The note with it: in vivo, 1 h, time 60 min. The class given is ADME, organism-based.
Data set [10] is described as follows: Hypnotic activity in mouse assessed as phenobarbital induced sleep endurance time at 30 mg/kg, po administered 30 mins prior to phenobarbital challenge and measured for 30 mins (reference value: 27.4 +/- 2.3 min). The class given is ADME, organism-based. The note with it: in vivo, 1 h, time 60 min.
The nature of data set [11]: Effect on motor coordination in mouse assessed as number of falls from rotarod at 30 mg/kg, po measured for 30 mins by rotarod test (reference value: 2.2 +/- 0.2). The class given is ADME, organism-based. The note with it: in vivo, 0.5 h.
Data set [12] is described as follows: Effect on locomotor activity in mouse at 30 mg/kg, po measured after 30 mins by hole-board test. The class given is ADME, organism-based. The note with it: in vivo, 0.5 h.
Data set [13] is described as follows: Effect on explorative activity in mouse assessed as exploration of holes at 30 mg/kg, po measured after 30 mins by hole-board test. The class given is ADME, organism-based. The note with it: in vivo, 0.5 h.
Data set [14] deals with Mus musculus. Put plainly: Anticonvulsive activity in mouse assessed as protection against pentylenetetrazole-induced seizure at 10 mg/kg, po administered 30 mins prior to pentylenetetrazole challenge and measured for 30 mins. The class given is functional. The note with it: time 60 min, 1 h.
Data set [15] in a line: Displacement of [3H]flunitrazepam from Benzodiazepine receptor in Sprague-Dawley rat cerebral cortex membrane measured after 30 mins by liquid scintillation spectrometry analysis. The class given is cell membranes.
Data set [16] can be described thus: Displacement of [3H]diazepam from Benzodiazepine receptor in rat cerebral cortex membrane. The class given is cell membranes.
A short description of data set [17]: Displacement of [3H]flunitrazepam from Benzodiazepine receptor in Sprague-Dawley rat cerebral cortex membrane preincubated for 10 mins followed by [3H]flunitrazepam addition and measured after 60 mins by liquid scintillation spectroscopy analysis. The class given is cell membranes.
Data set [18] is described as follows: Hypnotic activity in mouse assessed as phenobarbital induced sleep endurance time at 2 mg/kg, sc administered 30 mins prior to phenobarbital challenge and measured for 30 mins (reference value: 27.4 +/- 2.3 min). The class given is ADME, organism-based. The note with it: in vivo, 1 h, time 60 min.

Regarding `CCOC(=O)c1ncn2c1CN=C(c1ccccc1)c1ccsc1-2`, the Time in the data set with Mus musculus [1] came out at 166.2 s; in the data set on Mus musculus [2], 131.3 min; in the data set on Mus musculus [5] it was 13.6 s; in the data set on Mus musculus [6], 18.1 s; in the data set on Mus musculus [7] it was 54.1 s; with Mus musculus [8], 88.6 s. The Time in data set [9] came to 3.9 min; in [10], 23.8 min. In the data set listed under Rattus norvegicus, the inhibition is > 80%. In [3], this compound yielded an IC50 of 11.7 nM. Besides, the Activity in the data set with Mus musculus [4] turned out to be 10%; in data set [11] it was 1.9; in data set [12], 28.2; in data set [13] it was 19.1.

`CN1C(=O)CN=C(c2ccccc2)c2cc(Cl)ccc21` [DIAZEPAM]: the Time with Mus musculus [2] is 165.6 min. For the same compound, in data set [3], the 50% inhibitory concentration (IC50) turned out to be 18.5 nM. The Activity in the data set on Mus musculus [14] is on record as 100%.

With `CC(C)(C)OC(=O)c1ncn2c1CN=C(c1ccccc1)c1ccsc1-2`, the Time with Mus musculus [1] stood at 151.4 s; in the data set with Mus musculus [2], 113.6 min; with Mus musculus [5], 15.4 s; in the data set with Mus musculus [6], 17.2 s; in the data set with Mus musculus [7] it was 46.9 s; in the data set on Mus musculus [8] it was 70.3 s. In addition, the Time in data set [9] is given as 4.4 min; in data set [10], 28.8 min. For the same compound, the inhibition in the data set listed under Rattus norvegicus was > 80%. The same compound came in with an IC50 in [3] of 5.19 nM. The Activity amounted to 20% in the data set with Mus musculus [4], 2.4 in [11], 33.4 in [12] and 15.9 in data set [13].

Regarding `CC(C)(C)OC(=O)c1ncn2c1CN=C(c1ccc(F)cc1)c1ccsc1-2`, the Time worked out at 169.4 s with Mus musculus [1]; 145.6 min with Mus musculus [2]; 12.8 s with Mus musculus [5]; 16.5 s with Mus musculus [6]; 67.1 s with Mus musculus [7]; 85.9 s in the data set with Mus musculus [8]. For the same compound, the Time in data set [9] was 4.7 min; in data set [10] it was 27.2 min. Moreover, in the data set listed under Rattus norvegicus, the inhibition is > 80%. Moreover, in data set [3], the IC50 is 10.2 nM. The Activity is on record as 40% with Mus musculus [4]; 20% in the data set on Mus musculus [14]; 2.1 in [11]; 26.7 in data set [12]; 17.5 in data set [13].

`Cc1nnc2n1-c1sc(Br)cc1C(c1ccccc1Cl)=NC2` [BROTIZOLAM]: the IC50 in data set [15] was found to be 2.6 nM.

Regarding `CCOC(=O)c1ncn2c1CN=C(c1ccc(F)cc1)c1ccsc1-2`, the Time in the data set on Mus musculus [1] came to 151.2 s; with Mus musculus [2], 109.8 min; with Mus musculus [5] it was 13.9 s; in the data set on Mus musculus [6], 14.7 s; with Mus musculus [7], 55.8 s; in the data set with Mus musculus [8], 89.2 s. Moreover, the results for the Time in data set [9] and in [10] were 5.5 min and 29.2 min, respectively. Further, the inhibition in the data set filed under Rattus norvegicus is > 80%. Moreover, in data set [3], the concentration for half-maximal inhibition (IC50) is 16.2 nM. Besides, the Activity with Mus musculus [4] turned out to be 0%; in data set [11] it was 2.2; in data set [12], 34.5; in data set [13], 15.8.

`CCOC(=O)c1ncn2c1CN=C(c1cccc(F)c1)c1ccsc1-2`: the Time in the data set with Mus musculus [1] is recorded as 163.9 s; in the data set with Mus musculus [2] it was 111.3 min; in the data set with Mus musculus [5], 14.9 s; in the data set with Mus musculus [6], 17.4 s; in the data set on Mus musculus [7], 39.2 s; in the data set with Mus musculus [8] it was 75.3 s. The values for the Time in data set [9] and in data set [10] were 5.2 min and 24.9 min, respectively. Further, the inhibition in the data set listed under Rattus norvegicus is > 80%. In data set [3], this compound registered an IC50 of 8.66 nM. Besides, the Activity amounted to 20% in the data set with Mus musculus [4], 2.5 in data set [11], 27.3 in data set [12] and 15.3 in data set [13].

Turning to `CCOC(=O)c1ncn2c1CN(C)C(=O)c1cc(F)ccc1-2` [FLUMAZENIL], the IC50 in [16] was 2.3 nM.

Take `CCc1cc2c(s1)-n1c(C)nnc1CN=C2c1ccccc1Cl` [ETIZOLAM]: the IC50 in data set [17] was 4.5 nM.

As for `CC(N)Cc1ccccc1` (configuration not stated) [AMPHETAMINE], the Time in data set [18] came out at 22.2 min.

Consider `CC(C)(C)OC(=O)c1ncn2c1CN=C(c1cccc(F)c1)c1ccsc1-2`, for which the Time in the data set on Mus musculus [1] is 143.8 s; with Mus musculus [2] it was 118.3 min; in the data set with Mus musculus [5], 18.2 s; in the data set on Mus musculus [6], 15.6 s; in the data set on Mus musculus [7], 51.4 s; with Mus musculus [8], 72.5 s. Also, the Time in data set [9] is 3.5 min; in data set [10] it was 25.9 min. Moreover, the inhibition in the data set filed under Rattus norvegicus was > 80%. In [3], this compound displayed an IC50 of 9.61 nM. For the same compound, the Activity in the data set on Mus musculus [4] is 0%; in data set [11], 1.9; in data set [12], 29.5; in data set [13], 17.5.
